# ChEMBL document CHEMBL4304757, “Synthetic heterocyclic candidates as promising α-glucosidase inhibitors: An overview” (Eur J Med Chem, 2019)
# Experiments:
# Alpha glucosidase [1] = target: T1, Alpha glucosidase (Homo sapiens, UniProt O43451+P10253+P14410+Q2M2H8); assay: Inhibition of alpha-glucosidase (unknown origin) using p-nitrophenyl-alpha-d-glucopyranoside as substrate preincubated for 10 mins followed by substrate addition measured after 20 mins; type: protein assay
# [2] = Inhibition of yeast alpha-glucosidase using p-nitrophenyl-alpha-d-glucopyranoside as substrate preincubated for 15 mins followed by substrate addition measured after 30 mins; parameters: species or system Saccharomyces cerevisiae
# [3] = Inhibition of yeast alpha-glucosidase using p-nitrophenyl-alpha-d-glucopyranoside as substrate preincubated with enzyme followed by substrate addition measured after 30 mins by spectrophotometric analysis; parameters: species or system Saccharomyces cerevisiae
# Alpha glucosidase [4] = target: T1, Alpha glucosidase; assay: Inhibition of alpha-glucosidase (unknown origin) using p-nitro phenyl glucopyranoside as substrate preincubated for 10 mins followed by substrate addition measured after 10 mins; type: protein assay
# Alpha glucosidase [5] = target: T1, Alpha glucosidase; assay: Inhibition of alpha-glucosidase (unknown origin) using p-nitrophenyl-alpha-d-glucopyranoside as substrate preincubated for 30 mins followed by substrate addition measured for 60 secs by spectrophotometric analysis; type: protein assay
# [6] = Inhibition of yeast alpha-glucosidase; parameters: species or system Saccharomyces cerevisiae
# [7] = Inhibition of mouse alpha-glucosidase
# [8] = Inhibition of yeast alpha-glucosidase using p-nitrophenyl-alpha-d-glucopyranoside as substrate preincubated for 15 mins followed by substrate addition measured after 20 mins; parameters: species or system Saccharomyces cerevisiae
# [9] = Inhibition of yeast alpha-glucosidase using p-nitrophenyl-alpha-d-glucopyranoside as substrate preincubated with enzyme followed by substrate addition measured after 30 mins; parameters: species or system Saccharomyces cerevisiae
# Alpha glucosidase [10] = target: T1, Alpha glucosidase; assay: Inhibition of alpha-glucosidase (unknown origin) using p-nitrophenyl-alpha-d-glucopyranoside as substrate preincubated for 5 mins followed by substrate addition measured after 30 mins; type: protein assay
# Alpha glucosidase [11] = target: T1, Alpha glucosidase; assay: Potency index, ratio of acarbose IC50 to compound IC50 for inhibition of alpha-glucosidase (unknown origin) using p-nitrophenyl-alpha-d-glucopyranoside as substrate preincubated for 5 mins followed by substrate addition measured after 30 mins; type: protein assay
# MDA-MB-231 = assay: Cytotoxicity against human MDA-MB-231 cells assessed as reduction in cell viability at 100 uM relative to control; type: functional, cell-based
smiles,measurement,setting,value
Nc1c(C(c2ccccc2)c2c(N)c3ccccc3oc2=O)c(=O)oc2ccccc12,IC50,Alpha glucosidase [1],20 to 180 µM
O=C(CC(c1ccc(Br)cc1)C(C(=O)Nc1ccccn1)C(=O)Nc1ccccn1)c1ccccc1 (stereo not given),IC50,[2],12 µM
O=C(CCCSc1nc2ccccc2s1)Nc1cccc2ccccc12,IC50,[3],10 µM
Nc1c(C(c2cccc(F)c2)c2c(N)c3ccccc3oc2=O)c(=O)oc2ccccc12,IC50,Alpha glucosidase [1],20 to 180 µM
O=C1NC(=O)/C(=C\c2ccc(-n3ncc4ccccc43)cc2)S1,IC50,Alpha glucosidase [4],0.55 to 35 µM
Oc1ccc(Br)cc1-c1nc2cc(Cl)ccc2s1,IC50,Alpha glucosidase [5],22 µM
COc1ccc(/C=C/C(=O)C2=C(/C=C/c3ccc(OC)c(O)c3)Oc3[nH]c(=O)[nH]c(=O)c3C2c2ccccc2)cc1O (stereo not given),IC50,[6],97 to 119 µM
same,IC50,[7],98 to 413 µM
c1ccc(-c2nc3ccc(N4CCOCC4)cc3[nH]2)nc1,IC50,[8],3.4 to 20 µM
COc1ccc(/C=C/C(=O)C2=C(/C=C/c3ccc(OC)c(O)c3)Oc3[nH]c(=O)[nH]c(=O)c3C2c2cccc([N+](=O)[O-])c2)cc1O (stereo not given),IC50,[6],97 to 119 µM
same,IC50,[7],98 to 413 µM
O=C1/C(=C/c2cn(-c3ccccc3)nc2-c2cc3cc(Br)ccc3oc2=O)C(c2ccccc2)=NN1c1ccccc1,IC50,[9],2.1 to 289 µM
COc1cc(-c2nc3ccc(N4CCN(C)CC4)cc3[nH]2)ccc1O,IC50,[8],2.2 to 21 µM
COc1ccc(/C=C/C(=O)C2=C(/C=C/c3ccc(OC)c(O)c3)Oc3[nH]c(=O)[nH]c(=O)c3C2c2ccc(Cl)cc2)cc1O (stereo not given),IC50,[6],97 to 119 µM
same,IC50,[7],98 to 413 µM
Cc1cccc(C(c2c(N)c3ccccc3oc2=O)c2c(N)c3ccccc3oc2=O)c1,IC50,Alpha glucosidase [1],20 to 180 µM
Cc1ccccc1C(=O)/N=c1\scc(C)n1-c1cc(Cl)c(Cl)cc1Cl,IC50,Alpha glucosidase [10],0.15 µM
same,Ratio IC50,Alpha glucosidase [11],255
CC1=NN(c2ccc(C)cc2)C(=O)/C1=C/c1cn(-c2ccccc2)nc1-c1cc2ccccc2oc1=O,IC50,[9],2.1 to 289 µM
c1ccc2c(c1)c1ccccc1n2Cc1cn(Cc2ccc(Cn3cc(Cn4c5ccccc5c5ccccc54)nn3)cc2)nn1,IC50,[2],3.6 µM
Nc1c(C(c2cccc(Br)c2)c2c(N)c3ccccc3oc2=O)c(=O)oc2ccccc12,IC50,Alpha glucosidase [1],20 to 180 µM
Cc1n[nH]c2c1C(c1ccc([N+](=O)[O-])cc1)C(C#N)=C(N)O2 (stereo not given),IC50,[2],54 µM
Nc1c(C(c2cccc(Cl)c2)c2c(N)c3ccccc3oc2=O)c(=O)oc2ccccc12,IC50,Alpha glucosidase [1],20 to 180 µM
CC1=NN(c2ccccc2)C(=O)/C1=C/c1cn(-c2ccccc2)nc1-c1ccc(-c2ccccc2)cc1,IC50,[9],2.1 to 289 µM
Nc1c(C(c2ccc(O)cc2)c2c(N)c3ccccc3oc2=O)c(=O)oc2ccccc12,IC50,Alpha glucosidase [1],20 to 180 µM
O=C1NC(=O)/C(=C\c2ccc(-n3cnc4ccccc43)cc2)S1,IC50,Alpha glucosidase [4],0.55 to 35 µM
NNC(=O)Cn1c(Cc2ccc(Cl)cc2Cl)nc2ccc([N+](=O)[O-])cc21,IC50,[8],10 µM
Cc1[nH]nc2c1C(c1ccc(O)c(OCc3ccccc3)c1)C(C#N)=C(N)O2 (stereo not given),IC50,[2],60 to 180 µM
CC1=NN(c2ccc(C)cc2)C(=O)/C1=C/c1cn(-c2ccccc2)nc1-c1cc2cc(Br)ccc2oc1=O,IC50,[9],2.1 to 289 µM
Cc1cccc(C)c1N1C(=O)/C(=C/c2ccc(F)cc2)S/C1=N\NC(=O)c1cc2ccccc2oc1=O,Activity,MDA-MB-231,>=76%
same,IC50,Alpha glucosidase [10],0.09 to 1.6 µM
O=C(Cn1cc(Cn2c3ccccc3c3ccccc32)nn1)c1ccc(O)c(Br)c1,IC50,[2],0.61 to 1 µM
CC1=NN(c2ccc([N+](=O)[O-])cc2)C(=O)/C1=C/c1cn(-c2ccccc2)nc1-c1ccc(-c2ccccc2)cc1,IC50,[9],2.1 to 289 µM
CC1=NN(c2ccc([N+](=O)[O-])cc2)C(=O)/C1=C/c1cn(-c2ccccc2)nc1-c1cc2cc(Br)ccc2oc1=O,IC50,[9],2.1 µM
Cc1ncc([N+](=O)[O-])n1Cn1cc(Cn2c3ccccc3c3ccccc32)nn1,IC50,[2],6.8 µM
COc1cc(C(c2c(N)c3ccccc3oc2=O)c2c(N)c3ccccc3oc2=O)cc(Cl)c1O,IC50,Alpha glucosidase [1],20 to 180 µM
O=C1NC(=O)/C(=C\c2ccc(-n3ccc4c(Nc5ccc(F)cc5)ccnc43)cc2)S1,IC50,Alpha glucosidase [4],0.55 to 35 µM
CN1CCN(c2ccc3nc(-c4ccc(O)c(O)c4)[nH]c3c2)CC1,IC50,[8],2.2 to 21 µM
COc1ccccc1N1C(=O)/C(=C/c2ccc(F)cc2)S/C1=N\NC(=O)c1cc2ccccc2oc1=O,Activity,MDA-MB-231,72.8%
same,IC50,Alpha glucosidase [10],0.09 µM
Cc1ccc(C)c(N2C(=O)/C(=C/c3ccc(F)cc3)S/C2=N\NC(=O)c2cc3ccccc3oc2=O)c1,Activity,MDA-MB-231,>=76%
same,IC50,Alpha glucosidase [10],> 100 µM
O=C1/C(=C/c2cn(-c3ccccc3)nc2-c2cc3ccccc3oc2=O)C(c2ccccc2)=NN1c1ccccc1,IC50,[9],2.1 to 289 µM
CC1=NN(c2ccccc2)C(=O)/C1=C/c1cn(-c2ccccc2)nc1-c1cc2ccccc2oc1=O,IC50,[9],2.1 to 289 µM
C[C@H]1O[C@H](O[C@H]2[C@H](O)[C@@H](O)[C@@H](O[C@H]3[C@H](O)[C@@H](O)C(O)O[C@@H]3CO)O[C@@H]2CO)[C@H](O)[C@@H](O)[C@@H]1N[C@H]1C=C(CO)[C@@H](O)[C@H](O)[C@H]1O (stereo not given in full) [ACARBOSE],IC50,[2],937 µM
